Data: ChEMBL document CHEMBL3603813, “Quinoline-based antimalarial hybrid compounds” (Bioorg Med Chem, 2015)

Key:
[1] = system: Plasmodium falciparum; test: Antiplasmodial activity against CQ-resistant Plasmodium falciparum W2 assessed as inhibition of parasite growth; assay type: functional, organism-based
[2] = Inhibition of beta-hematin formation; assay type: physicochemical
[3] = system: Plasmodium falciparum; test: Antiplasmodial activity against CQ-sensitive Plasmodium falciparum 3D7; assay type: functional, organism-based; settings: for IC50: Plasmodium falciparum, 3D7
[4] = system: Plasmodium falciparum; test: Antiplasmodial activity against CQ-resistant Plasmodium falciparum K1; assay type: functional, organism-based
[5] = system: Plasmodium falciparum; test: Antiplasmodial activity against CQ-resistant Plasmodium falciparum Dd2; assay type: functional, organism-based; settings: for IC50: Plasmodium falciparum, Dd2
[6] = system: Plasmodium falciparum; test: Antiplasmodial activity against CQ-sensitive Plasmodium falciparum D10; assay type: functional, organism-based
[7] = system: Plasmodium falciparum; test: Antiplasmodial activity against CQ-resistant Plasmodium falciparum FCR3; assay type: functional, organism-based
[8] = system: Plasmodium falciparum; test: Antiplasmodial activity against CQ-resistant Plasmodium falciparum 7G8; assay type: functional
[9] = system: Plasmodium falciparum; test: Antiplasmodial activity against CQ-sensitive Plasmodium falciparum D6; assay type: functional
[10] = system: Plasmodium berghei; test: Antimalarial activity against Plasmodium berghei infected in human HuH7 cells assessed as inhibition of liver cell infection; assay type: functional, organism-based; settings: Huh-7, Liver

Row | IC50 [3] [nM] | Structure (SMILES) | IC50 [1] [nM] | other results
1 |  | Cc1ccc(N2C(=O)[C@@H](NC(=O)C(=O)NCCCCCCNc3ccnc4cc(Cl)ccc34)[C@H]2/C=C/c2ccccc2)cc1 | 34 | 
2 |  | O=C(/C=C/c1cccc(F)c1)c1cccc(Nc2ccnc3cc(Cl)ccc23)c1 |  | inhibition (INH) [2]: 94%
3 | 12 | C=C[C@H]1CN2CC[C@H]1C[C@H]2[C@H](OC(=O)CNC(=O)c1cn(C2CC2)c2nc(N3CCN(CC)CC3)c(F)cc2c1=O)c1ccnc2ccc(OC)cc12 |  | 
4 | < 1000 | CCc1c(O)c(=O)ccn1CCCNc1ccnc2cc(Cl)ccc12 |  | 
5 |  | C[C@H]1[C@@H](OCCN(CCCNc2ccnc3cc(Cl)ccc23)CCO[C@H]2O[C@@H]3O[C@@]4(C)CC[C@H]5[C@H](C)CC[C@@H]([C@H]2C)[C@@]35OO4)O[C@@H]2O[C@@]3(C)CC[C@H]4[C@H](C)CC[C@@H]1[C@@]24OO3 |  | Activity [3]: 9 nM
6 |  | CCCN1CNc2cc(Nc3ccnc4cc(Cl)ccc34)ccc2C1 | 130 | IC50 [4]: 220 nM
7 |  | C[C@H]1[C@@H](OCc2ccc(C(=O)N(CCNc3ccnc4cc(Cl)ccc34)CC(=O)NC3CCCCC3)cc2)O[C@@H]2O[C@@]3(C)CC[C@H]4[C@H](C)CC[C@@H]1[C@@]24OO3 |  | IC50 [6]: 26 nM; IC50 [4]: 19 nM
8 |  | O=C(NCCCCCCNc1ccnc2cc(Cl)ccc12)N[C@H]1C(=O)N(C2CCCCC2)[C@H]1/C=C/c1ccccc1 | 42 | 
9 |  | CC(=O)O[C@H](C(=O)OCCCNc1ccnc2cc(Cl)ccc12)[C@H](NC(=O)c1ccccc1)c1ccccc1 | 160 | 
10 |  | O=C(/C=C/c1ccccc1Cl)c1cccc(Nc2ccnc3cc(Cl)ccc23)c1 |  | inhibition (INH) [2]: 94%
11 |  | O=C(CS(=O)(=O)N1CCN(c2ccnc3cc(Cl)ccc23)CC1)Nc1ccccc1 |  | IC50 [7]: 1200 nM
12 |  | Cc1ccc(N2C(=O)[C@H](NC(=O)NCCNc3cccc4cc(Cl)ccc34)[C@@H]2/C=C/c2ccccc2)cc1 | 42 | 
13 |  | O=C(NCCCCCCNc1ccnc2cc(Cl)ccc12)C(=O)N[C@@H]1C(=O)N(C2CCCCC2)[C@@H]1/C=C/c1ccccc1 | 34 | 
14 |  | O=C(/C=C/c1ccc(Cl)cc1)c1cccc(Nc2ccnc3cc(Cl)ccc23)c1 |  | inhibition (INH) [2]: 94%
15 |  | C[C@H]1[C@@H](OCc2ccc(C(=O)N(CCNc3ccnc4cc(Cl)ccc34)CC(=O)NC(C)(C)C)cc2)O[C@@H]2O[C@@]3(C)CC[C@H]4[C@H](C)CC[C@@H]1[C@@]24OO3 |  | IC50 [6]: 26 nM; IC50 [4]: 19 nM
16 | < 1000 | Cc1c(O)c(=O)ccn1CCCCNc1ccnc2cc(Cl)ccc12 |  | 
17 |  | Clc1ccc2c(NCCCN3CCN(C4C5CC6CC(C5)CC4C6)CC3)ccnc2c1 (centres undefined) |  | Activity [8]: 2 nM; Activity [9]: 0.5 nM; Activity [5]: 1 nM
18 |  | O=C(NCCNc1cccc2cc(Cl)ccc12)N[C@H]1C(=O)N(C2CCCCC2)[C@H]1/C=C/c1ccccc1 | 42 | 
19 |  | O=C(N[C@H](c1ccccc1)[C@H](O)C(=O)NCc1cn(-c2cccc(Nc3ccnc4cc(Cl)ccc34)c2)nn1)c1ccccc1 | 280 | IC50 [4]: 390 nM
20 |  | O=C(N[C@H](c1ccccc1)[C@H](O)C(=O)OCCCNc1ccnc2cc(Cl)ccc12)c1ccccc1 | 130 | 
21 |  | CN(C)c1ccc(/C=C/C(=O)c2cccc(Nc3ccnc4cc(Cl)ccc34)c2)cc1 |  | inhibition (INH) [2]: 94%
22 | < 100 | O=C1/C(=C/c2ccc([N+](=O)[O-])cc2)SC(=S)N1CCCNc1ccnc2cc(Cl)ccc12 |  | 
23 |  | O=C(NCCNc1ccnc2cc(Cl)ccc12)C(=O)N[C@@H]1C(=O)N(C2CCCCC2)[C@@H]1/C=C/c1ccccc1 | 34 | 

Row | IC50 [3] [nM] | Structure (SMILES) | IC50 [1] [nM] | other results
24 | < 100 | COc1cc(/C=C2\SC(=S)N(CCNc3ccnc4cc(Cl)ccc34)C2=O)cc(OC)c1OC |  | 
25 |  | Cc1ccc(N2C(=O)[C@H](NC(=O)NCCCNc3cccc4cc(Cl)ccc34)[C@@H]2/C=C/c2ccccc2)cc1 | 42 | 
26 |  | Cc1ccc(N2C(=O)[C@H](NC(=O)CCCNc3ccnc4cc(Cl)ccc34)[C@@H]2/C=C/c2ccccc2)cc1 | 80 | 
27 |  | COc1cc(NC(C)CCCNCC2CCC3(CC2)OOC2(OO3)C3CC4CC(C3)CC2C4)c2ncccc2c1 (centres undefined) | 21 | IC50 [10]: 330 nM
28 |  | Cc1ccc(N2C(=O)[C@H](NC(=O)NCCCCNc3ccnc4cc(Cl)ccc34)[C@@H]2/C=C/c2ccccc2)cc1 | 42 | 
29 |  | O=C(N[C@H](c1ccccc1)[C@H](O)C(=O)NCc1cn(CCNc2ccnc3cc(Cl)ccc23)nn1)c1ccccc1 | 280 | IC50 [4]: 390 nM
30 | < 100 | COc1cc(/C=C2\SC(=S)N(CCCNc3ccnc4cc(Cl)ccc34)C2=O)cc(OC)c1OC |  | 
31 |  | O=C(NCCCCNc1ccnc2cc(Cl)ccc12)C(=O)N[C@@H]1C(=O)N(C2CCCCC2)[C@@H]1/C=C/c1ccccc1 | 34 | 
32 |  | O=C(/C=C/c1ccccc1)c1cccc(Nc2ccnc3cc(Cl)ccc23)c1 |  | inhibition (INH) [2]: 94%
33 |  | O=C(N[C@H](c1ccccc1)[C@H](O)C(=O)NCc1cn(-c2ccccc2Nc2ccnc3cc(Cl)ccc23)nn1)c1ccccc1 | 280 | IC50 [4]: 390 nM
34 |  | COc1cc(NC(C)CCCNC(=O)C2CCC3(CC2)OOC2(OO3)C3CC4CC(C3)CC2C4)c2ncccc2c1 (centres undefined) |  | IC50 [10]: 330 nM
35 |  | Cc1ccc(N2C(=O)[C@@H](NCCNc3ccnc4cc(Cl)ccc34)[C@H]2/C=C/c2ccccc2)cc1 | 80 | 
36 |  | O=C(NCCCNc1cccc2cc(Cl)ccc12)N[C@H]1C(=O)N(C2CCCCC2)[C@H]1/C=C/c1ccccc1 | 42 | 
37 |  | Cc1ccc(N2C(=O)[C@H](NC(=O)CCCCCNc3ccnc4cc(Cl)ccc34)[C@@H]2/C=C/c2ccccc2)cc1 | 80 | 
38 |  | Cc1ccc(N2C(=O)[C@@H](NC(=O)C(=O)NCCNc3ccnc4cc(Cl)ccc34)[C@H]2/C=C/c2ccccc2)cc1 | 34 | 
39 |  | C[C@H]1[C@@H](OCc2cccc(C(=O)N(CCCCNc3ccnc4cc(Cl)ccc34)CC(=O)NC3CCCCC3)c2)O[C@@H]2O[C@@]3(C)CC[C@H]4[C@H](C)CC[C@@H]1[C@@]24OO3 |  | IC50 [6]: 26 nM; IC50 [4]: 19 nM
40 |  | O=C(NCCCCNc1ccnc2cc(Cl)ccc12)N[C@H]1C(=O)N(C2CCCCC2)[C@H]1/C=C/c1ccccc1 | 42 | 
41 |  | Cc1ccc(N2C(=O)[C@@H](NC(=O)C(=O)NCCCNc3ccnc4cc(Cl)ccc34)[C@H]2/C=C/c2ccccc2)cc1 | 34 | 
42 |  | Clc1ccc2c(Nc3ccc4c(c3)NCN(Cc3ccccc3)C4)ccnc2c1 | 130 | IC50 [4]: 220 nM
43 |  | O=C(N[C@H](c1ccccc1)[C@H](O)C(=O)NCc1cn(CNc2ccnc3cc(Cl)ccc23)nn1)c1ccccc1 | 280 | IC50 [4]: 390 nM
44 | < 1000 | CCc1c(O)c(=O)ccn1CCCCCCNc1ccnc2cc(Cl)ccc12 |  | 
45 | 12 | C=C[C@H]1CN2CC[C@H]1C[C@H]2[C@H](OC(=O)CNC(=O)c1cn2c3c(c(N4CCN(C)CC4)c(F)cc3c1=O)CC[C@H]2C)c1ccnc2ccc(OC)cc12 |  | 
46 | < 1000 | CCc1c(O)c(=O)ccn1CCCCNc1ccnc2cc(Cl)ccc12 |  | 

Row | IC50 [3] [nM] | Structure (SMILES) | IC50 [1] [nM] | other results
47 | < 1000 | CCc1c(OCc2ccccc2)c(=O)ccn1CCCCCCNc1ccnc2cc(Cl)ccc12 |  | 
48 | < 100 | CN(C)c1ccc(/C=C2\SC(=S)N(CCCCNc3ccnc4cc(Cl)ccc34)C2=O)cc1 |  | 
49 | < 1000 | COc1c(C)n(CCCCNc2ccnc3cc(Cl)ccc23)ccc1=O |  | 
50 |  | Clc1ccc2c(NCCCN3CCN(C(c4ccccc4)c4ccccc4)CC3)ccnc2c1 |  | Activity [8]: 2 nM; Activity [9]: 0.5 nM; Activity [5]: 1 nM
51 |  | O=C(NCCCNc1ccnc2cc(Cl)ccc12)C(=O)N[C@@H]1C(=O)N(C2CCCCC2)[C@@H]1/C=C/c1ccccc1 | 34 | 
52 | < 100 | COc1cc(/C=C2\SC(=S)N(CCCCNc3ccnc4cc(Cl)ccc34)C2=O)cc(OC)c1OC |  | 
53 | 12 | C=C[C@H]1CN2CC[C@H]1C[C@H]2[C@H](OC(=O)C(C)NC(=O)c1cn(CC)c2cc3c(cc2c1=O)OCO3)c1ccnc2ccc(OC)cc12 (some centres undefined) |  | 
54 | < 1000 | CCc1c(OCc2ccccc2)c(=O)ccn1CCCCNc1ccnc2cc(Cl)ccc12 |  | 
55 | < 1000 | COc1c(C)n(CCCCCCNc2ccnc3cc(Cl)ccc23)ccc1=O |  | 
56 |  | Clc1ccc2c(NCCCCN3CCN(C(c4ccccc4)c4ccccc4)CC3)ccnc2c1 |  | Activity [8]: 2 nM; Activity [9]: 0.5 nM; Activity [5]: 1 nM
57 | 16 | C=C[C@H]1CN2CC[C@H]1C[C@H]2[C@H](OC(=O)C(C)NC(=O)c1cn(CC)c2ncccc2c1=O)c1ccnc2ccc(OC)cc12 (some centres undefined) |  | 
58 |  | COc1cc(NC(C)CCCNC2CCC3(CC2)OOC2(OO3)C3CC4CC(C3)CC2C4)c2ncccc2c1 (centres undefined) | 21 | 
59 | 4 | Cc1c(O)c(=O)ccn1CCCCCCNc1ccnc2cc(Cl)ccc12 |  | 
60 |  | Clc1ccc2c(NCCCN3CCN(CC(c4ccccc4)c4ccccc4)CC3)ccnc2c1 |  | Activity [8]: 2 nM; Activity [9]: 0.5 nM; Activity [5]: 1 nM
61 | < 100 | O=C1/C(=C/c2ccccc2[N+](=O)[O-])SC(=S)N1CCCNc1ccnc2cc(Cl)ccc12 |  | 
62 |  | CCN1CNc2cc(Nc3ccnc4cc(Cl)ccc34)ccc2C1 | 130 | IC50 [4]: 220 nM
63 |  | Cc1ccc(N2C(=O)[C@@H](NC(=O)C(=O)NCCCCNc3ccnc4cc(Cl)ccc34)[C@H]2/C=C/c2ccccc2)cc1 | 34 | 
64 |  | COc1cc(NC(C)CCCNC(=O)CC2CCC3(CC2)OOC2(OO3)C3CC4CC(C3)CC2C4)c2ncccc2c1 (centres undefined) | 21 | IC50 [10]: 330 nM
65 |  | C[C@H]1[C@@H](OCC[N+]2(CCO[C@H]3O[C@@H]4O[C@@]5(C)CC[C@H]6[C@H](C)CC[C@@H]([C@H]3C)[C@@]46OO5)CCN(CCNc3ccnc4cc(Cl)ccc34)CC2)O[C@@H]2O[C@@]3(C)CC[C@H]4[C@H](C)CC[C@@H]1[C@@]24OO3 |  | Activity [3]: 30 nM
66 |  | COc1cc(NC(C)CCCN)c2ncccc2c1 (centres undefined) [PRIMAQUINE] |  | IC50 [10]: 7500 nM
67 |  | Clc1ccc2c(NCCN3CCN(C(c4ccccc4)c4ccccc4)CC3)ccnc2c1 |  | Activity [8]: 2 nM; Activity [9]: 0.5 nM; Activity [5]: 1 nM

Row | Structure (SMILES) | IC50 [3] [nM] | IC50 [1] [nM] | other results
68 | O=C(/C=C/c1ccccc1)N[C@@H](CCCCCC(=O)NO)C(=O)Nc1cccc2cccnc12 | 13 |  | IC50 [5]: 33 nM
69 | C=C[C@H]1CN2CC[C@H]1C[C@H]2[C@H](O)c1ccnc2ccc(OC)cc12 [QUININE] | 18 |  | 
70 | CN(C)c1ccc(C(=O)N[C@@H](CCCCCC(=O)NO)C(=O)Nc2cccc3cccnc23)cc1 | 13 |  | IC50 [5]: 33 nM
